Source: patent US20250188032A1, “NITROGEN-CONTAINING HETEROCYCLIC COMPOUNDS AND USES THEREOF” (BNH RESEARCH CO., LTD., priority 2022, published 2025)

Tests used:
[1] = system: BDNF and GluN2B expression in 293T cells; assay: RT-PCR of BDNF and GluN2B mRNA in 293T cells; assay type: cell-based, human; settings: 6 hours after treating 293T cells, vs untreated group
Protocol: RT-PCR was used to measure the amount of BDNF and GluN2B in response to compounds of the present disclosure. 293T cells were dissociated using 0.05% Trypsin-EDTA solution and seeded in 24 well or 6 well dishes for RNA work. After incubation at 37° C. in a humidified atmosphere with 5% CO2 for 24 hours, the culture medium was replaced by a medium containing a series of concentrations of tested compounds diluted with the DMEM without FBS. Time course experiments were performed. The same volume of DMSO was used for negative control.
RNA was isolated from the cells after the compound treatment. After removing growth media, 0.3 to 0.4 mL of TRIzol™ per 1×10^5 to 10^7 cells were added directly to the culture dish to lyse the cells. […] RNA concentration was determined with the Thermo Scientific™ ρDrop™ plate. RNA quality was determined by measuring A230/260 and A260/280 ratio. […]
The PCR product was analyzed by agarose gel electrophoresis. […]
The BnH12 series drug according to the present disclosure was synthesized as a compound targeting HDAC4, which inhibits the expression of BDNF. […] In addition, it is known that the increase in the expression of BDNF increases the expression of GluN2B, and the mRNA level of GluN2B was also measured together with BDNF to measure the efficacy of BnH12001 in degrading HDAC4.

HDAC7 = target: T1, HDAC7 (Homo sapiens, UniProt Q8WUI4); assay: HDAC catalytic activity, fluorogenic substrate; assay type: biochemical; settings: 10-dose, 3-fold serial dilution starting at 100 μM, duplicates
T1 sequence (Q8WUI4 1-952): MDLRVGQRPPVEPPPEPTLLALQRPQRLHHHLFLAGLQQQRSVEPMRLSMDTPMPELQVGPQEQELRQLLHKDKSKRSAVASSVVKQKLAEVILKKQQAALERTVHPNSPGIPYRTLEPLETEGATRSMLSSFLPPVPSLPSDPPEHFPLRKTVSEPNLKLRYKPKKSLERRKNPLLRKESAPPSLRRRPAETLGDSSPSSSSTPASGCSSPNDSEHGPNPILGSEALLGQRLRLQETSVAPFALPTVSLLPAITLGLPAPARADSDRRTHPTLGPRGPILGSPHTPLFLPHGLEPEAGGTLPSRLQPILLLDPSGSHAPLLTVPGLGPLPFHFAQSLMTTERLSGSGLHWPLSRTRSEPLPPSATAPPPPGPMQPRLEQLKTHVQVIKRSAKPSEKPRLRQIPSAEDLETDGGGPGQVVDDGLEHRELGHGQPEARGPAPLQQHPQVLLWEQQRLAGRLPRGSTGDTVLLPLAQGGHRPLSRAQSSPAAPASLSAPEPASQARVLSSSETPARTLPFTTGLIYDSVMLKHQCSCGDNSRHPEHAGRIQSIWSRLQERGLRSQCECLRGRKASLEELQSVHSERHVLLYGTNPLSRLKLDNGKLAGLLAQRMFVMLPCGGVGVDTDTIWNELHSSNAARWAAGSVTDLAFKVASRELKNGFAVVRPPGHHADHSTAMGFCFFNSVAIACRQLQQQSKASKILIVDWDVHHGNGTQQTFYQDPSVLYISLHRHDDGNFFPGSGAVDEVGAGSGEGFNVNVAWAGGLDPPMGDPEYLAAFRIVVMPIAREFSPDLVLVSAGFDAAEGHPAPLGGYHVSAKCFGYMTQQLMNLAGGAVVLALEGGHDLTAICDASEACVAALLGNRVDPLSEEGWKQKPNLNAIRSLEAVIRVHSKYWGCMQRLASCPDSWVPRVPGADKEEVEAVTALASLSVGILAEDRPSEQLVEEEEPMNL
Protocol: The compound (racemate) was resuspended in 100 mM DMSO and tested in a 10-dose IC50 with 3-fold serial dilution starting at 100 μM against HDACs 1-9, and 11. As reference compounds, Trichostatin A (TSA) and TMP269 were tested in a 10-dose IC50 with 3-fold serial dilution starting at 10 μM or 1 μM.
10 μM Fluorogenic peptide from p53 residues 379-382 (RHKK(Ac)AMC) was used for the substrate for HDAC 1, 2, 3, and 6, 50 μM Fluorogenic HDAC Class2a Substrate (Trifluoroacetyl Lysine) was used for the substrate for HDAC 4, 5, 7, 9, and 11, 100 μM Fluorogenic peptide from p53 residues 379-382 (RHK(Ac)K(Ac)AMC) was used for the substrate for HDAC8.
IC50 values were calculated using the GraphPad Prism 4 program based on a sigmoidal dose-response equation and the blank (DMSO) value concentration was entered as 1.00E-12 M for curve fitting.

**Q.** What does the source list for `CC1CCC(C(=O)O)CN1C(=O)Cc1ccc(F)cc1Cl` (racemic) [BnH12001, 1-(2-(2-chloro-4-fluorophenyl)acetyl)-6-methylpiperidine-3-carboxylic acid]?
**A.** BDNF mRNA level [1]: significantly increased; GluN2B mRNA level [1]: significantly increased; Inhibitory effect on HDAC7 catalytic activity (HDAC7): did not show any inhibitory effect
